Test results as given in ChEMBL document CHEMBL3425437, “Selective Inhibitors of Cyclin G Associated Kinase (GAK) as Anti-Hepatitis C Agents” (J Med Chem, 2015).
Each block holds one molecule with its values, some of them ahead of it.

How the values were obtained:
[1] = molecular target: T1, Cyclin-G-associated kinase (Homo sapiens, UniProt O14976); test: Binding affinity to human GAK fused to T7 bacteriophage expressed in Escherichia coli BL21 after 1 hr by qPCR analysis
T1 sequence (O14976 whole entry): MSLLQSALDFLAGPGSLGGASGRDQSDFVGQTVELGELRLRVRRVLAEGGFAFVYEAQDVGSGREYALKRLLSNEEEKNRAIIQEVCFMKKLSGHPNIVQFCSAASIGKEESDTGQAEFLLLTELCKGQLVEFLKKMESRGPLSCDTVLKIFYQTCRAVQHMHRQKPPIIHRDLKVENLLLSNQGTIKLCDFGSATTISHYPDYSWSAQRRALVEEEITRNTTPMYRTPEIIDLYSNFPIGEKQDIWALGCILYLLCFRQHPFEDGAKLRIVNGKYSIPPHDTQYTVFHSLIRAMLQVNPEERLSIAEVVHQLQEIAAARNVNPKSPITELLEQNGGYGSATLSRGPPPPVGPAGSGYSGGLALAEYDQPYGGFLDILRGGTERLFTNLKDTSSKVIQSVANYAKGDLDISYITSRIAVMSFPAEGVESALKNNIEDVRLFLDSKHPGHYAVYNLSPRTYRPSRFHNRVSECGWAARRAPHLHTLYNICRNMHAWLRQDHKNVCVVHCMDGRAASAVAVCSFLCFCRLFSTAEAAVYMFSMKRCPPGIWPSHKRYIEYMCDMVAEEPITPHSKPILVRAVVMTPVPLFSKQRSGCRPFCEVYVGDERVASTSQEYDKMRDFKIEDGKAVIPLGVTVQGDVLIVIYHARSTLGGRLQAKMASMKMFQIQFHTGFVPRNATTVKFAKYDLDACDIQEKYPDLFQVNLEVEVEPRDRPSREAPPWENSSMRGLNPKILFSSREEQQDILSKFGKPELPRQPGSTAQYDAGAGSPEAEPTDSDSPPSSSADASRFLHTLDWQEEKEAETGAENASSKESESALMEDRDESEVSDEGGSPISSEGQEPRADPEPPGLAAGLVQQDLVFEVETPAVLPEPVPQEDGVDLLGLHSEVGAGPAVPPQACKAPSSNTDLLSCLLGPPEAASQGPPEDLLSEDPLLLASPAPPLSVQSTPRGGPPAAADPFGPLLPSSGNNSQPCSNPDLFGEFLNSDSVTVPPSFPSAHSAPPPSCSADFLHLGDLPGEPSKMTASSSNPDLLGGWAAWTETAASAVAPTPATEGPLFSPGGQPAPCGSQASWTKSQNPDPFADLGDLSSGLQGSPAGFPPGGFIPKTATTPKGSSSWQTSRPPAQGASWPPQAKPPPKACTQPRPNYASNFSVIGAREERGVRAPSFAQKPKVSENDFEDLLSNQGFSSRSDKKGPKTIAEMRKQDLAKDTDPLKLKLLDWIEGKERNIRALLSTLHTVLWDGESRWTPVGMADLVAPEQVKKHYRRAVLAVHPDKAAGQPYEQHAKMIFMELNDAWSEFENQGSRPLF

[2] = Cytotoxicity against human Huh7.5 cells infected with Hepatitis C virus H77 pseudoparticle assessed as effect on cell viability after 4 hrs by Alamarblue assay; format: cell-based; conditions: huh-7, 4 h
[3] = test system: Hepatitis C virus; test: Antiviral activity against Hepatitis C virus H77 pseudoparticle assessed as inhibition of viral entry into human Huh7.5 cells after 4 hrs by luciferase reporter gene assay; format: functional, cell-based, Hepacivirus hominis; conditions: genotype 1a H77, Huh-7, 4 h
[4] = test system: Hepatitis C virus; test: Antiviral activity against Hepatitis C virus J6/JFH infected in human Huh7.5 cells assessed as inhibition of extracellular infectivity drug treated every 24 hrs for 72 hrs measured after 72 hrs by luciferase reporter gene assay; format: functional, organism-based, Hepacivirus hominis; conditions: Huh-7
[5] = test system: Hepatitis C virus; test: Antiviral activity against Hepatitis C virus J6/JFH electroporated in human Huh7.5 cells assessed as inhibition of intracellular infectivity drug treated every 24 hrs for 72 hrs measured 72 hrs post electroporation by luciferase reporter gene assay; format: functional, organism-based, Hepacivirus hominis; conditions: Huh-7
[6] = molecular target: T2, Dual specificity mitogen-activated protein kinase kinase 5 (Homo sapiens, UniProt Q13163); test: Binding affinity to human MEK5
T2 sequence (Q13163 whole entry): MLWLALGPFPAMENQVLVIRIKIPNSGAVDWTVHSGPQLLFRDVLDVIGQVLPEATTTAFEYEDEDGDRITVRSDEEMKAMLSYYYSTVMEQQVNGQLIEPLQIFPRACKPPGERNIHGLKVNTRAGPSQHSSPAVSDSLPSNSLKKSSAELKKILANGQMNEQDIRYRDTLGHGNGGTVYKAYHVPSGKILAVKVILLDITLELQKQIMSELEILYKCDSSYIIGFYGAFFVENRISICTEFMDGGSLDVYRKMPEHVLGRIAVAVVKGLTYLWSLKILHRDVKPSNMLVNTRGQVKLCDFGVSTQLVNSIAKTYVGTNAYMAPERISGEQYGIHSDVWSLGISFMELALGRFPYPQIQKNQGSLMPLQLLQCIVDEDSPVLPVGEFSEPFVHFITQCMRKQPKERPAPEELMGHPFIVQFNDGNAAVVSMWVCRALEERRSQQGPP

[7] = molecular target: T3, Receptor-type tyrosine-protein kinase FLT3 (Homo sapiens, UniProt P36888); test: Binding affinity to human FLT3
T3 sequence (P36888 whole entry): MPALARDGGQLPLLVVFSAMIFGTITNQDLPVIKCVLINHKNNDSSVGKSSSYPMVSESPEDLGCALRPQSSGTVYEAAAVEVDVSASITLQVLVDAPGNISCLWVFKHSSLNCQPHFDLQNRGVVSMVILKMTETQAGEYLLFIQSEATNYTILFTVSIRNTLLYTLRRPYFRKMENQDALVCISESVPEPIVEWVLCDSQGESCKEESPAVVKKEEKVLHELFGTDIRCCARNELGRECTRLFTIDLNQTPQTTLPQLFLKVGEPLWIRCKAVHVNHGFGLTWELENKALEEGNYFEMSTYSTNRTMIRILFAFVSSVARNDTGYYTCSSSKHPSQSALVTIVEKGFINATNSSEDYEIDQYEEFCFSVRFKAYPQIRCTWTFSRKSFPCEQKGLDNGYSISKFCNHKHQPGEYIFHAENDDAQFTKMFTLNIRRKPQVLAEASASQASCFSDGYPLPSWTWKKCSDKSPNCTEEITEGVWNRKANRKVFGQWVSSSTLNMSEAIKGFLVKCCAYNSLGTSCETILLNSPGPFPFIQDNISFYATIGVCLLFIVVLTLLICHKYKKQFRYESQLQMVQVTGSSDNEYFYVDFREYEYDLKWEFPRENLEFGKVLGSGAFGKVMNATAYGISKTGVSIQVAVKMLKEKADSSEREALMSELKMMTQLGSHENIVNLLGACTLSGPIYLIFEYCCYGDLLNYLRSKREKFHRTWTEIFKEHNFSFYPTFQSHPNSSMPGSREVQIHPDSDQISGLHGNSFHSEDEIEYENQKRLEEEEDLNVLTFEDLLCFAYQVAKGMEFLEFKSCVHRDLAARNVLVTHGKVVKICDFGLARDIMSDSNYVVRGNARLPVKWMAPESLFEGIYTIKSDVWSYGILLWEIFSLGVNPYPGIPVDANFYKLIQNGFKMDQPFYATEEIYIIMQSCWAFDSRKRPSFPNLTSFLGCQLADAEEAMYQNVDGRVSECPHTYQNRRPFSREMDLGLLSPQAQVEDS

[8] = Cytotoxicity against human Huh7.5 cells infected with Hepatitis C virus J6/JFH assessed as effect on cell viability after 72 hrs by Alamarblue assay; format: cell-based; conditions: huh-7, 72 h
[9] = molecular target: Platelet-derived growth factor receptor alpha (Homo sapiens, UniProt P16234); test: Binding affinity to human PDGFRalpha
Chain of Platelet-derived growth factor receptor alpha (P16234 whole entry): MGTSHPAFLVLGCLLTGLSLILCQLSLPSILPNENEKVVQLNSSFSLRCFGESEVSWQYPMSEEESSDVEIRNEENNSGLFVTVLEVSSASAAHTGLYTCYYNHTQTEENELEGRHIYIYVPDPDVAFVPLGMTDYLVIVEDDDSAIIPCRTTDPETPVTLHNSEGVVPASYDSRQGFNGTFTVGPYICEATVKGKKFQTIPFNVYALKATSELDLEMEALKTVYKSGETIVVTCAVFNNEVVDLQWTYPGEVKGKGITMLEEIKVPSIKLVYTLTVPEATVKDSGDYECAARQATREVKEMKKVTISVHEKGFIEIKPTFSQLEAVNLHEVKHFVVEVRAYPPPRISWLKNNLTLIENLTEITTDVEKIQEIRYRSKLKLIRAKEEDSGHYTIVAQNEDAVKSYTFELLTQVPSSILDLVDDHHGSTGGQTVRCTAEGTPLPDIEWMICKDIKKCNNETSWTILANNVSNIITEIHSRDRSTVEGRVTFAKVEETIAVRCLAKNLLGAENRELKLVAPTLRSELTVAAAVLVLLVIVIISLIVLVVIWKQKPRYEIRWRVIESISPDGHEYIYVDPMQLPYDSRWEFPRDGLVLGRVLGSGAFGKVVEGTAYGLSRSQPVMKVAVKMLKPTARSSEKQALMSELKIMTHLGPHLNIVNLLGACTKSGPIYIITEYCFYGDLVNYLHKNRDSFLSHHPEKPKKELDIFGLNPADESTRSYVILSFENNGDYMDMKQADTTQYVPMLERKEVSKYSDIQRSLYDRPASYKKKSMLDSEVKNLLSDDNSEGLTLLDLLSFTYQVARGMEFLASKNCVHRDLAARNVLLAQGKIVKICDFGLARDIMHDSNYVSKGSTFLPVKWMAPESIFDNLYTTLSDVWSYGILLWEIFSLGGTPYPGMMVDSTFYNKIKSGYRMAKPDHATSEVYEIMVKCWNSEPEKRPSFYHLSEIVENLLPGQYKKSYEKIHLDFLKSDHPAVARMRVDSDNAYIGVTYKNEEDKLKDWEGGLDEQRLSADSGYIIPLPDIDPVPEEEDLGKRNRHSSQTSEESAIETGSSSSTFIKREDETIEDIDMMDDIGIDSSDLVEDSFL

[10] = molecular target: Platelet-derived growth factor receptor beta (Homo sapiens, UniProt P09619); test: Binding affinity to human PDGFRbeta
Chain of Platelet-derived growth factor receptor beta (P09619 whole entry): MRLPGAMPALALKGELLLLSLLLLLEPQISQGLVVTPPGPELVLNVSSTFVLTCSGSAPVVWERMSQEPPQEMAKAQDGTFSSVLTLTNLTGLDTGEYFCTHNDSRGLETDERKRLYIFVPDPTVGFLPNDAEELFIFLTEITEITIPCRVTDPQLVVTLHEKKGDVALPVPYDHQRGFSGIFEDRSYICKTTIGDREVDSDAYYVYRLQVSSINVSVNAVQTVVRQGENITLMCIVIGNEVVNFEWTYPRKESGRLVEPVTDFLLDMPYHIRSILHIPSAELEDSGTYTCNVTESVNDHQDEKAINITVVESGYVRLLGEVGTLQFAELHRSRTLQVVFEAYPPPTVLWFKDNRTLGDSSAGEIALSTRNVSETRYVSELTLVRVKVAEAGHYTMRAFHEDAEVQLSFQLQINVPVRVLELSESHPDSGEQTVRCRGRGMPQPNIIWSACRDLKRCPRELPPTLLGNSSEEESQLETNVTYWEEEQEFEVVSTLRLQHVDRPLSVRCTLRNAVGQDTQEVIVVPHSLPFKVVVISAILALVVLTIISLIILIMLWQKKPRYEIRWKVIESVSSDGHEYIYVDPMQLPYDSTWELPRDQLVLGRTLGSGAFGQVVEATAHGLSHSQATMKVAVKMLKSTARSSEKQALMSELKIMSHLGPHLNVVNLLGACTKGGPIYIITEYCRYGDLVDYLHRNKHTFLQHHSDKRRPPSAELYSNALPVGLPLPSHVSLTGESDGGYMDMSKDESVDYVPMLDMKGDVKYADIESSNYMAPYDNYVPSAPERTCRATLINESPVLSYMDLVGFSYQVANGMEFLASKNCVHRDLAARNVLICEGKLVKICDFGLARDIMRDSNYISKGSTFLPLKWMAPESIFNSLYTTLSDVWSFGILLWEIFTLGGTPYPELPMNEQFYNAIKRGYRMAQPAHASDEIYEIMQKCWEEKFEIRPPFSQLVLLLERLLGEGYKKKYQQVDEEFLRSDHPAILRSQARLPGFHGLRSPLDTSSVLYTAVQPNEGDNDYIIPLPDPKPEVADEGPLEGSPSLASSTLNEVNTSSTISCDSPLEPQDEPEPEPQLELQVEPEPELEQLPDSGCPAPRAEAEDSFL

[11] = test system: Hepatitis C virus; test: Antiviral activity against Hepatitis C virus J6/JFH infected in human Huh7.5 cells assessed as inhibition of viral replication measured after 72 hrs by luciferase reporter gene assay; format: functional, organism-based, Hepacivirus hominis; conditions: Huh-7, 72 h
[12] = molecular target: Mast/stem cell growth factor receptor Kit (Homo sapiens, UniProt P10721); test: Binding affinity to human KIT
Chain of Mast/stem cell growth factor receptor Kit (P10721 whole entry): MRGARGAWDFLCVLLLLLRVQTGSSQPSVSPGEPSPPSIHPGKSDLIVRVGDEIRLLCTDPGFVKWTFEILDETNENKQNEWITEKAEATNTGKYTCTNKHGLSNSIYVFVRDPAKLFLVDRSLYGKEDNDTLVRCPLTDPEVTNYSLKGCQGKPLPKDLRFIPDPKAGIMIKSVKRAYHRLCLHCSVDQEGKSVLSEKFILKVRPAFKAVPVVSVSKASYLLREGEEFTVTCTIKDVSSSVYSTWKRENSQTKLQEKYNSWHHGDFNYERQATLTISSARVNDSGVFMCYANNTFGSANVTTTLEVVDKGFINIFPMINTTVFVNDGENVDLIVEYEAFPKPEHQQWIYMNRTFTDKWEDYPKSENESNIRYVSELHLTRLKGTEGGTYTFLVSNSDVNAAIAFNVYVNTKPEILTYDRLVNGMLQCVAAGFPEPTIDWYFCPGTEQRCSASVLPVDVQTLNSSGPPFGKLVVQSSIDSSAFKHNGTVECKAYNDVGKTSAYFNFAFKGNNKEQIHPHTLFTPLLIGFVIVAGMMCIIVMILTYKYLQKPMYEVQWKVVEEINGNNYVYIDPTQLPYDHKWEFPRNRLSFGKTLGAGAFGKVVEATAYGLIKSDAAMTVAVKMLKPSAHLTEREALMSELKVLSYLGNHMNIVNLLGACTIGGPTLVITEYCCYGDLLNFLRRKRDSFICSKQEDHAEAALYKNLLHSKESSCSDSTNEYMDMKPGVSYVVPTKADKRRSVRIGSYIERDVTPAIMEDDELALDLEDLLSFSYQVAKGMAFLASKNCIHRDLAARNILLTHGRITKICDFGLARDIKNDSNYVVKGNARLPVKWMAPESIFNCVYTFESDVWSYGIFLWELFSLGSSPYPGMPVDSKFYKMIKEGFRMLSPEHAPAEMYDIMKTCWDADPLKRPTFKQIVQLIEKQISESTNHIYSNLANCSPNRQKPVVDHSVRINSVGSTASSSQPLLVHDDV

[13] = molecular target: Dual specificity protein kinase CLK2 (Homo sapiens, UniProt P49760); test: Binding affinity to human CLK2
Chain of Dual specificity protein kinase CLK2 (P49760 whole entry): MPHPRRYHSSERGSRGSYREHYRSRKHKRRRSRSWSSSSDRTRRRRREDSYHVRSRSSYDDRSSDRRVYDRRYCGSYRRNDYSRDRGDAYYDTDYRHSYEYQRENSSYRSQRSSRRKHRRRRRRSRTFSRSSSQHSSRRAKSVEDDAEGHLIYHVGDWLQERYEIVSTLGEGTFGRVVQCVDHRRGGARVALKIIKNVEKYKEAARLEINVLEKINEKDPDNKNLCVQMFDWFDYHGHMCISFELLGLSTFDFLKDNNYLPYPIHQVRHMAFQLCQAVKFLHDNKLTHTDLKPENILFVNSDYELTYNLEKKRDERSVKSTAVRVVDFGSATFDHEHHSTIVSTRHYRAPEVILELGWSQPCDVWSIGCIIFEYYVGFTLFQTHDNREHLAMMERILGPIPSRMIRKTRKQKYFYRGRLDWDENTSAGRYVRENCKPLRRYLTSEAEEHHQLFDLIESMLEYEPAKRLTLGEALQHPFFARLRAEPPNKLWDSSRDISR

[14] = molecular target: Macrophage colony-stimulating factor 1 receptor (Homo sapiens, UniProt P07333); test: Binding affinity to human CSF1R
Chain of Macrophage colony-stimulating factor 1 receptor (P07333 whole entry): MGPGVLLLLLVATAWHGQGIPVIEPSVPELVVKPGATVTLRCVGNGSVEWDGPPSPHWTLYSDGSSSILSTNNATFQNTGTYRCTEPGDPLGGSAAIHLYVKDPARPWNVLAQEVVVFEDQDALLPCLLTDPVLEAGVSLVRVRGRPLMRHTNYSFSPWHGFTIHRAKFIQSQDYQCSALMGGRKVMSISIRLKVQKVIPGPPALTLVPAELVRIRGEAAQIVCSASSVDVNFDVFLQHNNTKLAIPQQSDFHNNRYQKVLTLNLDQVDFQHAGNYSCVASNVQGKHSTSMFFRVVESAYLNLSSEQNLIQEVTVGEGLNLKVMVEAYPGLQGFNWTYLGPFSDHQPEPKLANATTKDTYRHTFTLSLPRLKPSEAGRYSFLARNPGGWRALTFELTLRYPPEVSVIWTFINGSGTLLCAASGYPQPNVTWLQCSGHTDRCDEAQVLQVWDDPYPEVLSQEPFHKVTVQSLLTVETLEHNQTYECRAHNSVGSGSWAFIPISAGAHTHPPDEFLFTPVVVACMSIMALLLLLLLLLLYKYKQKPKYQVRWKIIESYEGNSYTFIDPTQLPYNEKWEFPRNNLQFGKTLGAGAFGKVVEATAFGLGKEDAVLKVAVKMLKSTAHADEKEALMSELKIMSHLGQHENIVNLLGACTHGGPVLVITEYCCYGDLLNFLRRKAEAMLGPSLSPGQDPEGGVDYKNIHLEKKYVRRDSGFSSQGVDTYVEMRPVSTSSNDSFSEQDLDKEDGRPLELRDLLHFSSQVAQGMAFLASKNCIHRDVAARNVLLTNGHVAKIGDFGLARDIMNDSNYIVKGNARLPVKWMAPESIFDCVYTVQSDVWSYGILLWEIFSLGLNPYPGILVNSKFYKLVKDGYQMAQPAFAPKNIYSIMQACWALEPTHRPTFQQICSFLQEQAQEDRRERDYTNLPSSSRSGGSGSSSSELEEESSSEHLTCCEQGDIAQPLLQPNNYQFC

Structure (SMILES): COc1cc(-c2cnc3c(N4CCOCC4)snc3c2)ccc1N
Activity [2]: Non-toxic

Structure (SMILES): COc1cc(-c2cnc3c(N4CCOCC4)snc3c2)cc(OC)c1OC
EC50 [3]: 3600 nM
EC50 [4]: 2130 nM
EC50 [5]: 1640 nM
Kd [6]: 150 nM
Kd [7]: 110 nM
CC50 [8]: 23300 nM
Kd [9]: 220 nM
Kd [10]: 70 nM
Activity [2]: Non-toxic
EC50 [11]: 2550 nM
Kd [12]: 29 nM
Kd [13]: 710 nM
Kd [14]: 320 nM

Structure (SMILES): C#Cc1cccc(Nc2ncnc3cc(OCCOC)c(OCCOC)cc23)c1 [ERLOTINIB]
EC50 [4]: 500 nM
EC50 [5]: 500 nM
EC50 [11]: 500 nM

Structure (SMILES): COc1ccc(-c2cnc3c(N4CCOCC4)snc3c2)cc1OC
Kd [1]: 52 nM

The remaining lines, values ahead:

Kd [1]: 42 nM
Structure (SMILES): c1cc(-c2cnc3c(N4CCOCC4)snc3c2)cs1

Kd [1]: 200 nM
Structure (SMILES): c1cc(-c2cnc3c(N4CCOCC4)snc3c2)co1

Kd [1]: 72 nM
Structure (SMILES): COc1cc(OC)cc(-c2cnc3c(N4CCOCC4)snc3c2)c1

Kd [1]: 18 nM
Structure (SMILES): COc1cc(-c2cnc3c(N4CCOCC4)snc3c2)ccc1O

Kd [1]: 18 nM
Structure (SMILES): COc1cc(-c2cnc3c(N4CCOCC4)snc3c2)ccc1OC(C)=O

Kd [1]: 130 nM
Structure (SMILES): COc1ccc(OC)c(-c2cnc3c(N4CCOCC4)snc3c2)c1
